# Patent US20120077735A1, “PROPHYLACTIC AGENT FOR RENAL FAILURE” (priority 2007, published 2012)
# Tests used:
# male Wistar rats [1] = assay: Test 1: thickening of the small- and mid-sized renal artery wall in rats given L-NAME; format: in vivo, rat; conditions: drinking water with L-NAME 1 g/L plus VPP 0.3 g/L or Enalapril 0.5 mg/L, ad libitum for eight weeks; compared with L-NAME alone; FIG. 1
# Protocol: (§1) In order to evaluate the effect of the tripeptide Val Pro Pro (VPP) to suppress kidney glomerular disease and renal arteriosclerosis, a test on the frequency of occurrence of renal glomerular lesions and the degree of thickening of the small and middle renal artrey wall was carried out.
# (§2) The test was carried out using three groups of male Wistar rats of seven weeks old (Japan SLC, Inc.), each of which group consist of 9 to 12 rats. […] The dose of Enalapril was determined such that its activity to inhibit ACE was equivalent to VPP's. […]
# The thickening of the small-, and mid -sized artery wall existing in the renal cortex was also evaluated by a tissue pathological test in the same manner as the observation of the glomerular lesions. […] The thickness of the small- and mid-sized artery wall was scored from 0 to 3 as described below and a score for each individual rat was determined. The determined score for each individual rat was subjected to statistical analysis and a score for each group was determined. […]
# male Wistar rats [2] = assay: Test 1: frequency of occurrence of renal glomerular lesions in rats given L-NAME; format: in vivo, rat; conditions: drinking water with L-NAME 1 g/L plus VPP 0.3 g/L or Enalapril 0.5 mg/L, ad libitum for eight weeks; compared with L-NAME alone; FIG. 2
# Protocol: as §1, §2
# Under a microscopic observation, the glomerulus that atrophic lesions, deterioration of the glomerulus, glomerulosclerosis, alteration of Bowman's capsule or the like was observed was defined as the glomerulus with lesions, in accordance with the definition of the glomerular lesions described in a book by Enomoto et al. (edited by Makoto Enomoto, Yuzo Hayashi, and Hisako Tanaka, “Pathological tissues of experimental animals”, Softscience, pages 380-396). […] In one whole section, the frequency of occurrence of these glomerular lesions was scored from 0 to 3, and a score was determined for each individual rat. The thus determined score for each individual rat was subjected to statistical analysis and a score for each group was determined. […]
# male Wistar rats [3] = assay: Test 2: rat renal pathologic state (glomerular lesions, renal artery wall at the hilum and small- and mid-sized artery wall thickening) in rats given L-NAME; format: in vivo; conditions: drinking water with L-NAME 1 g/L plus IPP 0.3 g/L or Enalapril 0.5 mg/L, eight weeks; for With pathologic state / Without pathologic state: pathologic state = score not less than 1 in all three items
# Protocol: The tripeptide Ile Pro Pro (IPP) was also tested for renal pathologic state, in order to evaluate its effect to suppress kidney glomerular disease and renal arteriosclerosis.
# The test was carried out using three groups of male Wistar rats of seven weeks old (Japan SLC, Inc.), each of which group consist of 9 to 12 rats. After habituation breeding for a week, drinking water with L-NAME (manufactured by Sigma) being dissolved at a concentration of 1 g/L; drinking water with L-NAME and IPP being dissolved at a concentration of 1 g/L and 0.3 g/L respectively; drinking water with L-NAME and angiotensin converting enzyme (ACE) inhibitor, Enalapril at a concentration of 1 g/L and 0.5 mg/L respectively, were supplied ad libitum for eight weeks. The dose of Enalapril was determined such that its activity to inhibit ACE was equivalent to the activity of IPP to inhibit ACE.
# The rats were sacrificed by exsanguination under diethylether anesthesia. The kidney was enucleated and then fixed with 10% neutral buffered formalin solution. Tissue samples were prepared from the fixed kidney by excising in parallel with the minor axis such that the tip of renal papilla was included. The specimen were embedded in paraffin and cut into thin sections with a thickness of 2.0 to 2.5 μm using a microtome. Two to five sections per rat were prepared. The thin sliced sections were subjected to hematoxylin eosin staining or periodic acid methenamine silver staining (PAM staining). In accordance with a method by Foglieni et al. (Chiara Foglieni, et al., “Protective effect of EDTA preadministration on renal ischemia” BMC Nephrology 2006, 7:5, [online], Mar. 15, 2006, BioMed Central Ltd, http://www.biomedcentral.com/bmcnephrol/), a histopathological examination was, with keeping the name of each sample concealed, carried out by a pathologist who was not involved in the test.
# Under a microscopic observation, the glomerulus that atrophic lesions, deterioration of the glomerulus, glomerulosclerosis, alteration of Bowman's capsule or the like was observed was defined as the glomerulus with lesions, in accordance with the definition of the glomerular lesions described in a book by Enomoto et al. (edited by Makoto Enomoto, Yuzo Hayashi, and Hisako Tanaka, “Pathological tissues of experimental animals”, Softscience, pages 380-396). The atrophic lesion refers to conditions where the size ratio between the glomerulus and Bowman's capsule is altered due to glomerular atrophy. The deterioration of the glomerulus refers to conditions where the blood capillary cavity of the glomerulus is disappeared and glomerular functions are lost. The glomerulosclerosis refers to conditions where increased mesangial matrix was observed without accompanying hyperplasia of collagen fiber. The alteration of Bowman's capsule refers to conditions where hypertrophy of epithelial cells and uptake of lipid droplets and/or protein particles are observed. In one whole section, the frequency of occurrence of these glomerular lesions was scored from 0 to 3, and a score was determined for each individual rat.
# Score 0: A case where one or two glomerular lesions owing to physiologic alterations were observed.
# Score 1: A case where one or two focal regions in the glomerulus were observed, which regions were a limited and small range.
# Score 2: A case where two to four focal regions in the glomerulus were observed, which regions were a middle sized range.
# The focal regions herein indicate that a plural of lesions are, on the basis of pathological findings, observed in a certain area in one whole section.
# The thickening of the renal artery wall at the hilum existing in the renal medulla and the thickening of the small and middle artery wall existing in the renal cortex were also evaluated by a tissue pathological test in the same manner as the observation of the glomerular lesions. […]
Molecule,degree of thickening of the small- and mid-sized artery wall (score 0 to 3) (male Wistar rats [1]),frequency of occurrence of the glomerular lesions (score 0 to 3) (male Wistar rats [2]),onset of the pathologic state of the glomerulus and the renal artery (result in words) (male Wistar rats [3]),With pathologic state (male Wistar rats [3]) [rats],Without pathologic state (male Wistar rats [3]) [rats]
CCOC(=O)[C@H](CCc1ccccc1)N[C@@H](C)C(=O)N1CCC[C@H]1C(=O)O [Enalapril],did not show the suppressive effect,did not show the suppressive effect,did not exhibit such an effect,2,7
Ile Pro Pro [IPP],,,suppressed the onset of the pathologic state,0,9
Val Pro Pro [VPP],decrease in the degree of thickening,suppression of the frequency of occurrence of the glomerular lesions,,,
